Assay results from publication PMC12081876, “Identification of PTGR2 inhibitors as a new therapeutic strategy for diabetes and obesity” (EMBO Molecular Medicine, 2025).
“And” between values parts separate entries of the source, which are not always exact repeats. Identical values can stand only once.

Tests used:
[1] = test system: HFHSD-fed obese C57BL6/J mice; assay: Body weight / diet-induced obesity in HFHSD-fed mice; format: in vivo, mouse; conditions: 40 mg/kg/day ip; for Body weight, individual mice / Body weight, Average: in g (unit assumed)
[2] = test system: HFHSD-fed obese C57BL6/J mice; assay: Insulin tolerance test (ITT); format: in vivo, mouse; set-up: Figure 2I Average (glucose, ITT) / ITT / ITT glucose, Average / Blood glucose during insulin tolerance test (Figure 5M), Average: unit not given here; conditions: for ITT: individual mice
Protocol: (§1) Glucose tolerance was evaluated by the oral (OGTT) and intraperitoneal glucose tolerance test (ipGTT) after a 6-h fast. For the OGTT, glucose water (1 mg/g) was given by oral gavage, and tail blood glucose was measured with a glucometer (ACCU-CHEK Performa, Roche) at 0, 15, 30, 45, 60, 90, and 120 min. For the ipGTT, tail blood glucose was measured at 0, 15, 30, 45, 60, 90, and 120 min after intraperitoneal injection of glucose water (1 mg/g). For the insulin tolerance test (ITT), mice were fasted for 4 h and then injected intraperitoneally with 1 U/kg of insulin (Humulin R, Eli Lilly). Tail blood glucose was measured at 0, 15, 30, 45, 60, 90, 120, and 180 min.

[3] = test system: HFHSD-fed obese C57BL6/J mice; assay: Intraperitoneal glucose tolerance test (ipGTT); format: in vivo, mouse; set-up: Figure 2H Average (glucose, ipGTT) / ipGTT / ipGTT glucose, Average / Blood glucose during glucose tolerance test (Figure 5L), Average: unit not given here; conditions: for ipGTT: individual mice
Protocol: as §1

[4] = test system: differentiated 3T3-L1 adipocytes; assay: Insulin-stimulated glucose uptake assay by (3H)2-deoxyglucose; format: cell-based, mouse; set-up: insulin-stimulated glucose uptake, Fig 1J replicates / Figure 5E raw value, insulin-stimulated glucose uptake (replicates): unit not given here
Protocol: The cell lines, which were tested for mycoplasma contamination and authenticated, were purchased from the Bioresource Collection and Research Center, Taiwan. All cells were cultured at 37 °C, 5% CO2 in a humidified incubator. HEK293T cells were maintained in DMEM (cat. no. SH30003.02, HyClone) supplemented with 10% fetal bovine serum (FBS) (cat. no. 04-001-1A, Biological Industries) and 1% antibiotic/antimycotic solution (cat. no. SV30079.01, HyClone). 3T3-L1 preadipocytes were maintained at ~70% confluence in DMEM with 10% calf serum (cat. no. 16170078, Gibco) and 1% antibiotic/antimycotic solution. For adipocyte differentiation, confluent 3T3-L1 cells (defined as day 0) were exposed to an induction medium containing 10% FBS, 1 μM dexamethasone (cat. no. D4902, Sigma-Aldrich), and 1 μg/ml insulin (Humulin R, Eli Lilly) in DMEM with or without 0.5 mM isobutyl-methylxanthine (cat. no. sc-201188A, Santa Cruz Biotechnology) as indicated. After two days, the medium was replaced with DMEM containing 10% FBS and 1 μg/ml insulin and was replenished every two days until assay.
Differentiated 3T3-L1 cells were starved with serum-free DMEM containing 0.2% BSA (cat. no. A9647, Sigma-Aldrich). Cells were rinsed twice with KRH buffer (137 mM NaCl, 4.7 mM KCl, 1.85 mM CaCl2, 1.3 mM MgSO4, 50 mM HEPES and 0.1% BSA, pH 7.4), and treated with or without […] insulin in the presence of 20 μM cytochalasin B (cat. no. 11328, Cayman Chemical), a GLUT inhibitor for measuring non-specific glucose uptake, for 30 min. Cells were then incubated with 0.5 μCi [^3H]-2-deoxy-D-Glucose (cat. no. NET328A001MC, PerkinElmer) and 0.1 μM 2-deoxy-D-Glucose (2DG) (cat. no. 14325, Cayman Chemical) for 5 min. Uptake of 2DG was terminated by rapidly removing medium and washing with ice-cold PBS three times. Cells were lysed with 0.1% SDS, and the radioactivity was measured using a liquid scintillation counter. Insulin-mediated glucose uptake was calculated by subtracting insulin-treated glucose uptake with basal glucose uptake.

[5] = 40 mg/kg/day ip, 3 weeks, HFHSD-fed mice, vs vehicle

With `CCCCCC(=O)/C=C/[C@H]1[C@H](O)CC(=O)[C@@H]1C/C=C\CCCC(=O)O` [15-keto-PGE2, 15-keto-prostaglandin E2] the “diet-induced obesity (body weight)” value ([1]; 3 weeks, HFHSD-fed mice, vs vehicle) was “protected against diet-induced obesity”, the “Body weight, individual mice” value ([1]; treatment day 1, 40 mg/kg/day) was 31.70 and 29.90 and 31.10 and 26.25 and 27.55 and the “Body weight, Average” value ([1]; treatment day 1) was 29.83. For the same compound, the “Body weight, individual mice” value ([1]; treatment day 2, 40 mg/kg/day) was 31.55 and 28.75 and 30.85 and 26.15 and 27.85, the “Body weight, Average” value ([1]; treatment day 2) was 29.61 and the “Body weight, Average” value ([1]; treatment day 3, 40 mg/kg/day) was 29.4. For the same compound, the “Body weight, individual mice” value ([1]; treatment day 3, 40 mg/kg/day) was 31.60 and 29.00 and 30.75 and 25.90 and 26.35, the “Body weight, individual mice” value ([1]; treatment day 4, 40 mg/kg/day) was 32.50 and 27.95 and 30.90 and 25.75 and 26.90 and the “Body weight, Average” value ([1]; treatment day 4) was 29.42. For the same compound, the “Body weight, individual mice” value ([1]; treatment day 5, 40 mg/kg/day) was 32.50 and 26.45 and 30.70 and 25.35 and 26.25, the “Body weight, Average” value ([1]; treatment day 5) was 29.42 and the “Body weight, individual mice” value ([1]; treatment day 6, 40 mg/kg/day) was 32.60 and 26.45 and 30.00 and 25.75. For the same compound, the “Body weight, Average” value ([1]; treatment day 6) was 29.49, the “Body weight, individual mice” value ([1]; treatment day 7, 40 mg/kg/day) was 32.60 and 26.55 and 30.10 and 26.40 and the “Body weight, Average” value ([1]; treatment day 7) was 29.61. The “Body weight, individual mice” value ([1]; treatment day 8, 40 mg/kg/day) was 31.90 and 27.35 and 30.10 and 25.05, the “Body weight, Average” value ([1]; treatment day 8) was 29.92 and the “Body weight, individual mice” value ([1]; treatment day 9, 40 mg/kg/day) was 31.40 and 28.05 and 30.70 and 25.90. For the same compound, the “Body weight, Average” value ([1]; treatment day 9) was 29.95, the “Body weight, individual mice” value ([1]; treatment day 10, 40 mg/kg/day) was 30.70 and 28.45 and 30.20 and 26.55 and 27.35 and the “Body weight, Average” value ([1]; treatment day 10) was 29.99. The “Body weight, individual mice” value ([1]; treatment day 11, 40 mg/kg/day) was 31.60 and 28.55 and 30.40 and 27.50 and 26.90, the “Body weight, Average” value ([1]; treatment day 11) was 30.05 and the “Body weight, Average” value ([1]; treatment day 12, 40 mg/kg/day) was 30.2. The “Body weight, individual mice” value ([1]; treatment day 12, 40 mg/kg/day) was 31.60 and 29.05 and 30.95 and 27.45 and 27.10, the “Body weight, individual mice” value ([1]; treatment day 13, 40 mg/kg/day) was 31.75 and 30.2 and 31.6 and 28.55 and 28.05 and the “Body weight, Average” value ([1]; treatment day 13) was 30.36. For the same compound, the “Body weight, individual mice” value ([1]; treatment day 14, 40 mg/kg/day) was 31.65 and 30.50 and 31.35 and 28.35 and 27.80, the “Body weight, Average” value ([1]; treatment day 14) was 30.49 and the “Body weight, individual mice” value ([1]; treatment day 15, 40 mg/kg/day) was 31.70 and 29.55 and 30.65 and 27.45 and 27.00. For the same compound, the “Body weight, Average” value ([1]; treatment day 15) was 30.22, the “Body weight, individual mice” value ([1]; treatment day 16, 40 mg/kg/day) was 31.85 and 29.40 and 30.30 and 27.00 and 26.50 and the “Body weight, Average” value ([1]; treatment day 16) was 30.12. The “Body weight, individual mice” value ([1]; treatment day 17, 40 mg/kg/day) was 32.75 and 29.85 and 31.95 and 27.85 and 26.80, the “Body weight, Average” value ([1]; treatment day 17) was 30.56 and the “Body weight, individual mice” value ([1]; treatment day 18, 40 mg/kg/day) was 31.80 and 29.75 and 32.10 and 27.75. The “Body weight, Average” value ([1]; treatment day 18) was 30.63, the “Body weight, individual mice” value ([1]; treatment day 19, 40 mg/kg/day) was 33.15 and 31.50 and 32.00 and 28.35 and 27.70 and the “Body weight, Average” value ([1]; treatment day 19) was 30.65. For the same compound, the “Body weight, individual mice” value ([1]; treatment day 20, 40 mg/kg/day) was 33.10 and 30.85 and 31.55 and 27.75 and 27.15, the “Body weight, Average” value ([1]; treatment day 20) was 30.69 and the “Body weight, individual mice” value ([1]; treatment day 21, 40 mg/kg/day) was 32.55 and 30.9 and 31.6 and 28 and 28.15. The “Body weight, Average” value ([1]; treatment day 21) was 30.73, the “insulin sensitivity (ITT)” value [2, 5] was “markedly improved” and the ITT ([2]; 0 min) was 113 and 114 and 91 and 147 and 149 and 115 and 92 and 118 and 94 and 110 and 98 and 125. For the same compound, the ITT ([2]; 15 min) was 59 and 78 and 70 and 67 and 83 and 90 and 111 and 75 and 45 and 63 and 82 and 49 and 92, the ITT ([2]; 30 min) was 56 and 79 and 54 and 62 and 52 and 71 and 66 and 57 and 43 and 75 and 46 and the ITT ([2]; 45 min) was 34 and 60 and 37 and 51 and 42 and 62 and 56 and 47 and 44 and 30 and 54 and 50 and 29. The ITT ([2]; 60 min) was 23 and 57 and 21 and 58 and 46 and 66 and 49 and 34 and 31 and 26 and 51 and 53 and 50 and 39 and 29, the ITT ([2]; 90 min) was 22 and 65 and 25 and 41 and 63 and 57 and 31 and 37 and 56 and 38 and 49 and 24 and 27 and the ITT ([2]; 120 min) was 46 and 53 and 25 and 39 and 54 and 62 and 47 and 31 and 70 and 51 and 36. The ITT ([2]; 180 min) was 98 and 66 and 25 and 65 and 84 and 62 and 77 and 73 and 54 and 78 and 69 and 82, the “Figure 2I Average (glucose, ITT)” value ([2]; time 0) was 112.333 and the “Figure 2I Average (glucose, ITT)” value ([2]; time 15) was 74.4667. For the same compound, the “Figure 2I Average (glucose, ITT)” value ([2]; time 30) was 60.8, the “Figure 2I Average (glucose, ITT)” value ([2]; time 45) was 46.2667 and the “Figure 2I Average (glucose, ITT)” value ([2]; time 60) was 42.2. The “Figure 2I Average (glucose, ITT)” value ([2]; time 90) was 41.1333, the “Figure 2I Average (glucose, ITT)” value ([2]; time 120) was 45.6667 and the “Figure 2I Average (glucose, ITT)” value ([2]; time 180) was 67.6667. The “glucose tolerance (ipGTT)” value [3, 5] was “markedly improved”, the ipGTT ([3]; 0 min) was 105 and 98 and 102 and 88 and 151 and 155 and 75 and 78 and 93 and 125 and 111 and the ipGTT ([3]; 15 min) was 222 and 226 and 190 and 213 and 239 and 234 and 324 and 231 and 152 and 188 and 183 and 251 and 245 and 276. The ipGTT ([3]; 30 min) was 262 and 264 and 155 and 201 and 221 and 211 and 273 and 247 and 125 and 124 and 200 and 186 and 235 and 231 and 280, the ipGTT ([3]; 45 min) was 229 and 251 and 162 and 188 and 184 and 199 and 252 and 215 and 109 and 112 and 132 and 155 and 211 and 175 and 213 and the ipGTT ([3]; 60 min) was 262 and 225 and 130 and 171 and 177 and 179 and 196 and 206 and 110 and 120 and 89 and 133 and 182 and 155 and 205. For the same compound, the ipGTT ([3]; 90 min) was 208 and 191 and 114 and 152 and 166 and 143 and 171 and 181 and 88 and 108 and 112 and 151 and 124, the ipGTT ([3]; 120 min) was 166 and 121 and 99 and 122 and 118 and 90 and 69 and 80 and 108 and 131 and 100 and 135 and the “Figure 2H Average (glucose, ipGTT)” value ([3]; time 0) was 108.467. The “Figure 2H Average (glucose, ipGTT)” value ([3]; time 15) was 223.8, the “Figure 2H Average (glucose, ipGTT)” value ([3]; time 30) was 214.333 and the “Figure 2H Average (glucose, ipGTT)” value ([3]; time 45) was 185.8. The “Figure 2H Average (glucose, ipGTT)” value ([3]; time 60) was 169.333, the “Figure 2H Average (glucose, ipGTT)” value ([3]; time 90) was 144.2 and the “Figure 2H Average (glucose, ipGTT)” value ([3]; time 120) was 109.267. For the same compound, the “insulin-stimulated glucose uptake, Fig 1J replicates” value ([4]; 15kPGE2 1) was 1.328 and 1.441 and 0.8491 and 1.4653, the “insulin-stimulated glucose uptake, Fig 1J replicates” value ([4]; 15kPGE2 5) was 3.521 and 4.331 and 2.858 and 2.553 and the “insulin-stimulated glucose uptake, Fig 1J replicates” value ([4]; 15kPGE2 10) was 4.083 and 4.476 and 3.119 and 3.373. The insulin-stimulated glucose uptake ([4]; differentiated 3T3-L1 adipocytes) was “increased insulin-stimulated glucose uptake in differentiated 3T3-L1 adipocytes dose-dependently”.
